According to the supplement of paper PMC4858399:
Where a name gives a salt, the structure may show the parent alone.

Legend:
Details in all cases: exposure time 48 h
[1] = test system: Caenorhabditis elegans N2; test: AC50 for larval growth inhibition (Hill fit); higher = less potent
Outline: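 Worms were synchronised C. elegans N2 L1 larvae, 50 per well of a 96-well plate, kept 48 h at 20°C in K-medium with killed OP50, 1% DMSO and 0.5–200 µM chemical. Size was taken as COPAS Biosort extinction, log-transformed and averaged per well, using only wells with at least 10 worms. AC50 was estimated by a constrained Hill fit with weighted genetic-algorithm regression; values outside the range are censored.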

[2] = test system: Caenorhabditis elegans N2; test: lowest effective concentration for larval growth inhibition (size below effect threshold); higher = less potent
Outline: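 Chemical exposure ran for 48 h at 20°C: 50 C. elegans N2 L1 larvae per 96-well in K-medium with killed bacteria, 1% DMSO and 0.5, 1, 5, 10, 50, 100 or 200 µM chemical. Extinction of each worm, read as size on the Biosort, was log-transformed and averaged by well. The lowest effective concentration is the first dose whose plate-adjusted mean size is below a fixed value and remains so at all higher doses; the value is 5.665.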

[3] = test system: Caenorhabditis elegans N2; test: mean nematode size ln(EXT) after 48 h, plate-adjusted (DMSO control set to 6) (ln(EXT), control-adjusted); higher = larger nematodes / less growth inhibition
Outline: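 Synchronised C. elegans N2 L1 larvae (50 per well, 4–6 wells per treatment) were grown for 48 h at 20°C in K-medium with killed OP50, 1% DMSO and 0.5–200 µM chemical. The Biosort measured each worm's extinction, and debris was removed by a growth model. Values were natural-logged and averaged per well. Mean size was then plate-adjusted by subtracting the vehicle control mean and adding 6.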

| Compound | AC50 for larval growth inhibition [1] [µM] | lowest effective concentration [2] [µM] | mean nematode size ln(EXT) (ln) ([3]; 0.5 µM) | mean nematode size ln(EXT) (ln) ([3]; 1 µM) | mean nematode size ln(EXT) (ln) ([3]; 5 µM) | mean nematode size ln(EXT) (ln) ([3]; 10 µM) | mean nematode size ln(EXT) (ln) ([3]; 50 µM) | mean nematode size ln(EXT) (ln) ([3]; 100 µM) | mean nematode size ln(EXT) (ln) ([3]; 200 µM) |
| --- | --- | --- | --- | --- | --- | --- | --- | --- | --- |
| OCC(O)CO [Glycerol] | > 200 | 200 | 5.83 | 5.87 | 5.84 | 5.75 | 5.87 | 5.87 | 5.66 |
| CCOC(=O)CC(SP(=S)(OC)OC)C(=O)OCC (centres undefined) [Malathion] | > 200 | 100 | 5.93 | 6.01 | 5.79 | 5.98 | 5.8 | 5.59 | 5.28 |
| CC[C@H](C)C(=O)O[C@H]1C[C@@H](C)C=C2C=C[C@H](C)[C@H](CC[C@@H]3C[C@@H](O)CC(=O)O3)[C@H]21 [Lovastatin] | > 200 | 50 | 5.85 | 5.83 | 5.8 | 5.83 | 5.65 | 5.23 | 5.06 |
| CSC(=O)c1c(C(F)F)nc(C(F)(F)F)c(C(=O)SC)c1CC(C)C [Dithiopyr] | 66.4 | 10 | 6.12 | 6.03 | 6.04 | 5.65 | 4.72 | 4.61 | 3.44 |
| CN(C)[C@@H]1C(=O)C(C(N)=O)=C(O)[C@@]2(O)C(=O)C3=C(O)c4c(O)cccc4[C@@](C)(O)[C@H]3[C@H](O)[C@@H]12 [Oxytetracycline dihydrate] | > 200 | 200 | 5.86 | 6.02 | 6.01 | 5.95 | 5.87 | 5.83 | 5.46 |
| CCOS(=O)(=O)OCC [Diethyl sulfate] | 55 | 100 | 5.87 | 5.85 | 5.83 | 5.88 | 5.88 | 4.98 | 5.42 |
| CCN(CC)C(=O)c1cc(S(=O)(=O)Cc2ccccc2)c(N2CCC(c3ccccc3)CC2)cc1N(CC)CCN(C)C | 72.6 | 10 | 5.74 | 5.7 | 5.67 | 5.57 | 4.82 | 4.3 | 3.47 |
| CC1=C2C[C@H]3[C@@H](CC=C4C[C@@H](O)CC[C@@]43C)[C@@H]2CC[C@]12O[C@@H]1C[C@H](C)CN[C@H]1[C@H]2C [Cyclopamine] | > 200 | 200 | 5.89 | 5.89 | 5.9 | 5.85 | 5.9 | 5.8 | 5.39 |
| ClC(Cl)(Cl)c1ccccc1 [Benzotrichloride] | > 200 | 200 | 5.84 | 5.87 | 5.73 | 5.82 | 5.78 | 5.75 | 4.93 |
| O=C(N[C@H](c1ccccc1)[C@@H]1CN2CCC1CC2)c1c(Cl)ccc(C(F)(F)F)c1Cl | 171 | 10 | 5.84 | 5.83 | 5.78 | 5.64 | 5.61 | 5.09 | 4.34 |
| O=C(Nc1ccccc1)Nc1ccnc(Cl)c1 [Forchlorfenuron] | > 200 | 50 | 5.77 | 5.96 | 5.81 | 5.82 | 5.44 | 5.54 | 4.5 |
